Assay results: patent publication US20200016200A1, “MODULATING CYTOTOXIC CELL LYTIC GRANULE POSITIONING TO PROMOTE DIFFUSE KILLING IN CELLULAR THERAPIES” (Baylor College of Medicine, priority 2016, published 2020)
“Also recorded” adds a separate entry of the source.

Legend:
CD19 CAR-bearing T cells = assay: Live cell confocal microscopy of lytic granule positioning (LysoTracker Red); type: cell-based; conditions: for stimulation-induced lytic granule convergence: ciliobrevin D 50 μM vs DMSO, straight out of culture or 0.5 h post cytokine (IL-7, IL-15) re-addition
Protocol: (§1) FIG. 17. […] Live cell confocal microscopy of CD19 CAR-bearing T cells untreated or treated with ciliobrevin D (30 and 100 μM). Lytic granule positioning was tracked using LysoTracker Red. […] Quantitative analyses of lytic granule distance from the MTOC are shown as a feature of the degree of granule convergence in CD19 CAR-bearing T cells.
as §1, with “18.” for “17.”, “cells” for “cells untreated or”, “with DMSO or” for “with”, “(50” for “(30 and 100”, “Red. […] The culture medium for CD19 CAR T cells contains IL-7 and IL-15.” for “Red.”
(§2) Specifically, the inventors have shown convergence in CD19 CAR T cells, CD19 CAR NK cells, PSCA CAR T cells, GD2 CAR NKT cells, HER2 CART cells, and glypican CAR T cells (FIG. 15A). Using a measurement of mean granule distance from the MTOC, CAR cells have varying degrees of converged lytic granules (FIG. 15B).

NK92 cells = assay: Flow cytometry-based cytotoxicity / bystander killing assay; type: cell-based, human
Protocol: (§3) Because directed degranulation with converged granules promoted killing efficiency, ciliobrevin D was used to physically prevent convergence in a cell that had received a convergence signal. It was considered that this would allow us to abrogate the killing efficiency benefit imparted by lytic granule convergence. In order to measure killing of both the target and bystander cells in a single experiment, flow cytometry-based cytotoxicity assays were performed, wherein each cell line was labeled with a unique fluorescent dye in the presence of media containing SYTOX Blue viability indicator dye. […] The viability of YTS ([…]), NK92 (FIG. 14E, 14H) and eNK (FIG. 14F, 14I) was not affected by DMSO or ciliobrevin D treatments. […] To ask if it promoted more collateral damage by NK cells 51Cr-labeled Raji cells were added (to serve as innocent bystanders) along with unlabeled 721.221 or K562 target cells. […] YTS or NK92 cells co-cultured with 51Cr-labeled Raji cells in the absence of 721.221 or K562 were unable to kill Raji cells (FIG. 14J). […] Convergence therefore serves to protect innocent bystander cells in complex cellular environments.
(§4) YTS-CD16, NK92-CD16 and eNK cells were labeled with CellTrace CFSE for 10 min at room temperature, washed, and treated with ciliobrevin D or DMSO control as described below in inhibitors. 721.221 and K562 cells were labeled with cell proliferation dye eFluor 670 for 5 min at room temperature. Raji cells were labeled with PKH-26 according to manufacture's protocol. NK cells were then mixed with the corresponding targets and Raji cells at a final volume of 200 μl complete R10 and incubated at 37° C. for 2 hr. Cells were then labeled with SYTOX Blue viability dye for 5 min at room temperature, washed, and run on LSRFortessa flow cytometer (BD).
(§5) Where applicable, YTS, NK92 and eNK cells were pretreated with […] ciliobrevin D (Millipore) for 30 min then washed. DMSO was used as the vehicle control for all inhibitor experiments. The inhibitor was also added into the co-culture with target cells.

eNK cells = assay: as above; type: cell-based, human
Protocol: as §3, §4, §5

YTS cells = assay: as above; type: cell-based, human
Protocol: as §3, §4, §5

[1] = test system: CD19 CAR-bearing NK cells; assay: Live cell confocal microscopy of lytic granule positioning (LysoTracker Red); type: cell-based; conditions: ciliobrevin D 50 μM vs DMSO, straight out of culture or 0.5 h post cytokine (IL-2) re-addition
Protocol: FIG. 19. […] Live cell confocal microscopy of CD19 CAR-bearing NK cells treated with DMSO or ciliobrevin D (50 μM). Lytic granule positioning was tracked using LysoTracker Red. […] The culture medium for CD19 CAR NK cells contains IL-2. […] Quantitative analyses of lytic granule distance from the MTOC are shown as a feature of the degree of granule convergence in […].
as §2

CD19 CAR T cell = assay: Live cell confocal microscopy of CD19 CAR T cell conjugated with a Daoy-CD19 target cell; type: cell-based
Protocol: FIG. 25. […] Live cell confocal microscopy of a ciliobrevin D-treated CD19 CAR T cell conjugated with a Daoy-CD19 target cell. Cell mixtures were imaged every 90 sec for 60 min. Time point 1 (T1) represents the time when imaging started. Target cell death occurred rapidly at T5 (7.5 min) as indicated by uptake of SYTOX Blue viability dye and loss of adherence. […] Red, LysoTracker Red (lytic granules); blue, SYTOX Blue viability dye; green, CD19 CAR.
Similarly, compared to DMSO, ciliobrevin D-treated CD19 CAR NK cells lyse approximately 24%, 39% and 40% more bystander cells at the concentration of 12.5, 25 and 50 μM, respectively (FIG. 22). […] FIG. 23 and FIG. 24 are time-lapse images of videos of control ([…]) and ciliobrevin D-treated ([…]) CD19 CAR T cells. […] In the control group, however, lytic granules converge immediately upon interacting with the target cell and remain tightly clustered until target is killed by the CD19 CAR T cell as indicated by uptake of the SYTOX Blue viability dye.

SMILES: N#CC(C(=O)c1ccc(Cl)cc1Cl)=C1NC(=O)c2ccc(Cl)cc2N1 [ciliobrevin D, 2-(7-chloro-4-oxo-3,4-dihydroquinazolin-2(1H)-ylidene)-3-(2,4-dichlorophenyl)-3-oxopropanenitrile]
- stimulation-induced lytic granule convergence (CD19 CAR-bearing T cells): blocks stimulation-induced convergence
- stimulation-induced lytic granule convergence (CD19 CAR-bearing T cells; listed as Ciliobrevin D): dispersed lytic granules
- lytic granule positioning (granule distance from the MTOC) (CD19 CAR-bearing T cells; ciliobrevin D 30 and 100 μM vs untreated): can disperse lytic granules; also recorded: dispersed lytic granules
- viability of NK cells (NK92 cells; NK92, standard cytotoxicity and bystander killing assays): not affected; also recorded: not different
- specific lysis of susceptible target cells (NK92 cells; NK92 against K562, Raji bystander cells added, vs DMSO): no change in killing; also recorded: not affected
- killing of susceptible target cells (NK92 cells; NK92 against K562, absence of Raji bystander cells, vs DMSO): did not affect killing; also recorded: not affected
- non-specific lysis (bystander killing) of Raji cells (NK92 cells; NK92 with K562 inciting targets, vs DMSO): killing of the bystander Raji cells in a dose-dependent manner; also recorded: increased
- specific lysis of susceptible target cells (eNK cells; eNK against K562, Raji bystander cells added, vs DMSO): no change in killing; also recorded: not affected
- killing of susceptible target cells (eNK cells; eNK against K562, absence of Raji bystander cells, vs DMSO): did not affect killing; also recorded: not affected
- non-specific lysis (bystander killing) of Raji cells (eNK cells; eNK with K562 inciting targets, vs DMSO): killing of the bystander Raji cells in a dose-dependent manner; also recorded: increased
- viability of NK cells (eNK cells; eNK, standard cytotoxicity and bystander killing assays): not affected; also recorded: not different
- specific lysis of susceptible target cells (YTS cells; YTS against 721.221, Raji bystander cells added, vs DMSO): no change in killing; also recorded: not affected
- killing of susceptible target cells (YTS cells; YTS against 721.221, absence of Raji bystander cells, vs DMSO): did not affect killing; also recorded: not affected
- non-specific lysis (bystander killing) of Raji cells (YTS cells; YTS with 721.221 inciting targets, vs DMSO): killing of the bystander Raji cells in a dose-dependent manner; also recorded: increased
- viability of NK cells (YTS cells; YTS, standard cytotoxicity and bystander killing assays): not affected; also recorded: not different
- stimulation-induced lytic granule convergence [1]: blocks stimulation-induced convergence
- stimulation-induced lytic granule convergence ([1]; listed as Ciliobrevin D): dispersed lytic granules
- time of target cell death (SYTOX Blue uptake, loss of adherence) (CD19 CAR T cell; ciliobrevin D-treated CD19 CAR T cell, Daoy-CD19 target): 7.5 min
- lytic granule positioning during conjugation and killing (CD19 CAR T cell; ciliobrevin D-treated, imaged every 90 sec for 60 min): dispersedly localized lytic granules throughout the video; also recorded: remained dispersed throughout the video
